Measurements as given in US10544130B2, “Metallo-beta-lactamase inhibitors” (priority 2015, dated 2020).

How the values were obtained:
[1] = system: Escherichia coli expressing NDM-1 (CLB30005, CLB30016); format: cell-based; conditions: with imipenem 1 μg/ml; 95% inhibition of bacterial growth
In short: (§1)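 Growth read by absorbance after 22–24 h at 35 °C in CAMHB, with test compound alone or combined with 1 μg/ml imipenem. Inocula came from overnight 35 °C blood-agar colonies, set to a defined OD600 and diluted 1:100. Value is the inhibitor concentration giving synergy.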

[2] = system: Klebsiella pneumoniae expressing VIM-1 (IHMA599644); format: cell-based; conditions: with imipenem 1 μg/ml; 95% inhibition of bacterial growth
In short: as §1

[3] = system: Serratia marcescens expressing IMP-1 (CL5741); format: cell-based; conditions: with imipenem 1 μg/ml; 95% inhibition of bacterial growth
In short: as §1

[4] = system: Pseudomonas aeruginosa PAO1 MB9798 (efflux+, IMP-1); conditions: ratio MITC95 PA 9798/MITC95 PA 9799; imipenem at 2 μg/mL
In short: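 Isogenic PAO1 pair (efflux+ MB9798, efflux− MB9799, both IMP-1) tested by microbroth MIC with fixed imipenem and/or ceftazidime, usually at CLSI breakpoint, plus fixed class A/C inhibitor against AmpC. MBL inhibitor titrated; concentration restoring susceptibility recorded and fold difference between strains taken as efflux extent.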

| Compound | Escherichia coli (NDM-1) MITC95 [1] [µM] | Klebsiella pneumoniae (VIM-1) MITC95 [2] [µM] | Serratia marcescens (IMP-1) MITC95 [3] [µM] | Efflux ratio [4] |
| --- | --- | --- | --- | --- |
| NCCNS(=O)(=O)c1ccc(-c2cccc(NC[C@H](N)CO)c2)c(-c2nn[nH]n2)c1S(N)(=O)=O [Example 350, (S)-3′-((2-amino-3-hydroxypropyl)amino)-N4-(2-aminoethyl)-2-(2H-tetrazol-5-yl)-[1,1′-biphenyl]-3,4-disulfonamide] | 0.7813 | 0.7813 | 0.7813 | 1.00 |
| Nc1nc2c(-c3ccc(S(=O)(=O)N[C@H]4CCNC4)c(S(N)(=O)=O)c3-c3nn[nH]n3)cc(F)cc2[nH]1 [Example 399, (S)-4-(2-amino-6-fluoro-1H-benzo[d]imidazol-4-yl)-N^1-(pyrrolidin-3-yl)-3-(2H-tetrazol-5-yl)benzene-1,2-disulfonamide] | 0.7813 | 1.563 | 1.563 |  |
| NCCNC(=O)c1cc(Cl)cc(-c2ccc(S(=O)(=O)NCCN)c(S(N)(=O)=O)c2-c2nn[nH]n2)c1N [Example 447, 2-Amino-N-(2-aminoethyl)-4′-(N-(2-aminoethyl)sulfamoyl)-5-chloro-3′-sulfamoyl-2′-(2H-tetrazol-5-yl)-[1,1′-biphenyl]-3-carboxamide] | 0.7813 | 1.563 | 0.7813 |  |
| NCC(CN)NS(=O)(=O)c1ccc(-c2cccc(-c3c[nH]c(N)n3)c2)c(-c2nn[nH]n2)c1S(N)(=O)=O [Example 435, 3′-(2-amino-1H-imidazol-4-yl)-N4-(1,3-diaminopropan-2-yl)-2-(2H-tetrazol-5-yl)-[1,1′-biphenyl]-3,4-disulfonamide] | 1.563 | 3.125 | 3.125 |  |
| C[C@H](N)Cc1nc2c(-c3ccc(S(=O)(=O)N[C@@H]4CCNC4)c(S(N)(=O)=O)c3-c3nn[nH]n3)cccc2[nH]1 [Example 441, 4-(2-((S)-2-Aminopropyl)-1H-benzo[d]imidazol-4-yl)-N1-((R)-pyrrolidin-3-yl)-3-(2H-tetrazol-5-yl)benzene-1,2-disulfonamide] | 1.563 | 1.563 | 1.563 |  |
| Cn1nnc2c(-c3ccc(S(=O)(=O)N[C@H]4CCNC4)c(S(N)(=O)=O)c3-c3nn[nH]n3)cccc21 [Example 293, (S)-4-(1-methyl-1H-benzo[d][1,2,3]triazol-4-yl)-N1-(pyrrolidin-3-yl)-3-(2H-tetrazol-5-yl)benzene-1,2-disulfonamide] | 3.125 | 3.125 | 3.125 |  |
| NCC(F)(F)c1nc2c(-c3ccc(S(=O)(=O)N[C@H]4CCNC4)c(S(N)(=O)=O)c3-c3nn[nH]n3)cccc2[nH]1 [Example 446, (S)-4-(2-(2-amino-1,1-difluoroethyl)-1H-benzo[d]imidazol-4-yl)-N1-(pyrrolidin-3-yl)-3-(2H-tetrazol-5-yl)benzene-1,2-disulfonamide] | 1.563 | 3.125 | 3.125 |  |
| NCc1nc(-c2cccc(-c3ccc(S(=O)(=O)N[C@H]4CNC[C@H]4N)c(S(N)(=O)=O)c3-c3nn[nH]n3)c2)c[nH]1 [Example 462] | 1.563 | 1.563 | 1.563 |  |
| NCCNCc1sc(N)nc1-c1cccc(-c2ccc(S(=O)(=O)N[C@@H]3CCNC3)c(S(N)(=O)=O)c2-c2nnn[nH]2)c1 [Example 433, (R)-3′-(2-amino-5-(((2-aminoethyl)amino)methyl)thiazol-4-yl)-N^4-(pyrrolidin-3-yl)-2-(1H-tetrazol-5-yl)-[1,1′-biphenyl]-3,4-disulfonamide] | 0.7813 | 1.563 | 1.563 |  |
| NCCNS(=O)(=O)c1ccc(-c2cccc(C(=O)N[C@@H]3CNC[C@H]3O)c2)c(-c2nn[nH]n2)c1S(N)(=O)=O [Example 344, 4′-(N-(2-aminoethyl)sulfamoyl)-N-((3R,4R)-4-hydroxypyrrolidin-3-yl)-3′-sulfamoyl-2′-(2H-tetrazol-5-yl)-[1,1′-biphenyl]-3-carboxamide] | 0.7813 | 1.563 | 1.563 |  |
| NCCNC(=O)c1cc(-c2ccc(S(=O)(=O)NCCN)c(S(N)(=O)=O)c2-c2nn[nH]n2)ccc1N [Example 451, 4-Amino-N-(2-aminoethyl)-4′-(N-(2-aminoethyl)sulfamoyl)-3′-sulfamoyl-2′-(2H-tetrazol-5-yl)-[1,1′-biphenyl]-3-carboxamide] | 0.7813 | 0.7813 | 0.7813 |  |
| NC[C@H]1CCN(S(=O)(=O)c2ccc(-c3cccc4[nH]c(N)nc34)c(-c3nn[nH]n3)c2S(N)(=O)=O)C1 [Example 253, (R)-3-(2-amino-1H-benzo[d]imidazol-4-yl)-6-((3-(aminomethyl)pyrrolidin-1-yl)sulfonyl)-2-(2H-tetrazol-5-yl)benzenesulfonamide] | 1.563 | 1.563 | 0.7813 |  |
| NC[C@@H](O)CNS(=O)(=O)c1ccc(-c2ccnc(N)c2)c(-c2nn[nH]n2)c1S(N)(=O)=O [Example 419, (R)-N^1-(3-amino-2-hydroxypropyl)-4-(2-aminopyridin-4-yl)-3-(2H-tetrazol-5-yl)benzene-1,2-disulfonamide] | 0.1953 | 1.563 | 0.7813 |  |
| NCCNS(=O)(=O)c1ccc(-c2cccc(NC(=O)[C@@H](N)CN)c2)c(-c2nn[nH]n2)c1S(N)(=O)=O [Example 453, (S)-2,3-Diamino-N-(4′-(N-(2-aminoethyl)sulfamoyl)-3′-sulfamoyl-2′-(2H-tetrazol-5-yl)-[1,1′-biphenyl]-3-yl)propanamide] | 1.563 | 3.125 | 3.125 |  |
| NC[C@H](N)CNS(=O)(=O)c1ccc(-c2cccc(-c3c[nH]c(N)n3)c2)c(-c2nn[nH]n2)c1S(N)(=O)=O [Example 434, (S)-3′-(2-amino-1H-imidazol-4-yl)-N^4-(2,3-diaminopropyl)-2-(2H-tetrazol-5-yl)-[1,1′-biphenyl]-3,4-disulfonamide] | 0.7813 | 1.563 | 1.563 |  |
| C[C@@H](N)CNS(=O)(=O)c1ccc(-c2cccc3sc(N)nc23)c(-c2nn[nH]n2)c1S(N)(=O)=O [Example 390, 4-(2-amino-1,3-benzothiazol-4-yl)-N^1-[(2R)-2-aminopropyl]-3-(2H-tetrazol-5-yl)benzene-1,2-disulfonamide] | 3.125 | 3.125 | 1.563 |  |
| Nc1ncc(-c2cc(-c3ccc(S(=O)(=O)N[C@@H]4CCNC4)c(S(N)(=O)=O)c3-c3nnn[nH]3)ccn2)[nH]1 [Example 440, (R)-4-(2-(2-Amino-1H-imidazol-5-yl)pyridin-4-yl)-N^1-(pyrrolidin-3-yl)-3-(1H-tetrazol-5-yl)benzene-1,2-disulfonamide] | 0.7813 | 1.563 | 1.563 |  |
| NCCNc1cc(-c2ccc(S(=O)(=O)NCCN)c(S(N)(=O)=O)c2-c2nn[nH]n2)ccn1 [Example 456, N1-(2-Aminoethyl)-4-(2-((2-aminoethyl)amino)pyridin-4-yl)-3-(2H-tetrazol-5-yl)benzene-1,2-disulfonamide] | 0.7813 | 1.563 | 0.7813 |  |
| NCC(CN)NS(=O)(=O)c1ccc(-c2cccc(-c3cnc(N)[nH]3)n2)c(-c2nnn[nH]2)c1S(N)(=O)=O [Example 438, 4-(6-(2-Amino-1H-imidazol-5-yl)pyridin-2-yl)-N^1-(1,3-diaminopropan-2-yl)-3-(1H-tetrazol-5-yl)benzene-1,2-disulfonamide] | 3.125 | 3.125 | 3.125 |  |
| Nc1nc2c(-c3ccc(S(=O)(=O)N[C@@H]4CNC[C@H]4N)c(S(N)(=O)=O)c3-c3nn[nH]n3)cccc2[nH]1 [Example 424, 4-(2-amino-1H-benzo[d]imidazol-4-yl)-N^1-((3R,4R)-4-aminopyrrolidin-3-yl)-3-(2H-tetrazol-5-yl)benzene-1,2-disulfonamide] | 0.7813 | 1.563 | 1.563 |  |
| NCCNC(=O)c1cc(Cl)cc(-c2ccc(S(=O)(=O)N[C@@H]3CCNC3)c(S(N)(=O)=O)c2-c2nn[nH]n2)c1N [Example 450, (R)-2-Amino-N-(2-aminoethyl)-5-chloro-4′-(N-(pyrrolidin-3-yl)sulfamoyl)-3′-sulfamoyl-2′-(2H-tetrazol-5-yl)-[1,1′-biphenyl]-3-carboxamide] | 1.563 | 1.563 | 1.563 |  |
